# Measured values as given in patent US12544348B2, “Methods for treating APOE4/4-associated disorders” (The Regents of the University of California, priority 2018, dated 2026).
# Test system: apoE4/4-iPSC-derived human neurons
# Assay: RNA-Seq analysis of apoE4/4-iPSC-derived human neurons
# Assay type: cell-based
# Conditions: 10 μM, 6 hours
# Description: Neuronal Differentiation of Human apoE4/4-iPSCs. Human iPS lines were generated from skin fibroblasts of a subject with apoE4/4 genotype and were maintained under feeder-free conditions in mTeSR1 medium (STEMCELL Technologies). Human apoE4/4-iPSCs were routinely passaged at 1:2-1:4 by brief treatment with Accutase (Millipore) and scraping. The human iPSC protocol was approved by the Committee on Human Research at the University of California. The apoE4/4-iPSCs were differentiated into neurons as reported with modifications. iPSCs were treated with collagenase IV (Stem Cell Technologies) and grown in suspension as embryoid bodies in hES medium without bFGF. The medium was replaced every day for 5 days. On day 5, embryoid bodies were grown in Neural Induction Medium containing Dulbecco's modified Eagle's medium/F12 and Neurobasal Medium (1:1, Thermo Fisher), 1% N2 Supplement (Life Technologies), 1% B27 Supplement (Life Technologies), nonessential amino acids, and 0.5% penicillin/streptomycin (Life Technologies) supplemented with inhibitors of the TGF-β receptor (SB431542, Stemgent; 5 μM) and the bone morphogenetic protein receptor (LDN-193189, Stemgent; 0.25 μM). On day 7, spheres were transferred to wells coated with Matrigel (BD Biosciences) and grown in Neural Progenitor Medium, which consisted of Neural Induction Medium without SB and LDN, but containing 10 ng/ml bFGF (PeproTech), 10 ng/ml epidermal growth factor (EGF) (PeproTech), and 2 μg/ml heparin (Sigma). Attached neuroepithelial cells were fed every other day for 7 days. Neural rosette structures appeared by around day 15, were lifted off the plate, and grown in suspension in Neural Progenitor Medium to form neurospheres. For neuronal differentiation, neurospheres were dissociated with Accutase and plated on culture plates coated with 100 μg/ml poly-1-ornithine (Sigma) and 10 μg/ml laminin (Sigma). Neuronal cultures were maintained in Neural Differentiation Medium consisting of Neural Progenitor Medium, brain-derived neurotrophic factor (10 ng/ml; PeproTech), and glial cell-derived growth factor (10 ng/ml; PeproTech) without bFGF, EGF, or heparin. Neurons were observed after several days and were further differentiated for 30 days or longer. Most of the experiments were performed on the neuronal culture differentiated beyond 8 weeks. This culture condition generated neuronal cells with 75±4% vGLUT^+ total glutamatergic excitatory neurons, 15±3% GABA^+ GABAergic inhibitory neurons, and 5±2% TH^+ dopaminergic neurons. RNA-Seq Analysis of Human ApoE4/4-iPS-derived Neurons. Total RNA was extracted and purified from apoE4/4-iPSC-derived human neurons with the Qiagen RNeasy Micro kit, which included a DNase treatment. cDNA was generated from full-length RNA (50 ng per sample) with the NuGEN RNA-Seq V2 kit, which uses the single primer isothermal amplification method to deplete ribosomal RNA, and sheared by Covaris to yield fragments of uniform size. The NuGen Ultralow system V2 was used for adding adapters and for barcoding and amplification. The resulting RNA libraries were purified with Agencourt XP magnetic beads, and quantified by qPCR after quality control with an Agilent Bioanalyzer. The libraries were pooled and sequenced with a HiSeq 4000 instrument (Illumina) for single-end (SE50) sequencing. Sequence data were aligned with the STAR short read aligner and counts per feature were obtained with the featureCounts function from the Subread package. […]
# [1] = vs vehicle, P<0.05 by Monte Carlo Simulation
structure (smiles),measurement,setting,value
"CCCCNc1cc(C(=O)O)cc(S(N)(=O)=O)c1Oc1ccccc1 [bumetanide, 3-(butylamino)-4-phenoxy-5-sulfamoylbenzoic acid]",number of pathways also shared with the apoE4/4 AD signature from humans,,4
same,number of pathways overlapping with mouse hippocampal neuronal cells exhibiting the predicted drug effect,,14
same,number of significantly perturbed pathways,,27
same,shift in FC rank of genes downregulated in apoE4/4 AD,[1],shifted upward towards lower rank numbers
same,shift in FC rank of genes upregulated in apoE4/4 AD,[1],shifted downward towards higher rank numbers
